The target in the test is T1, SYK (Homo sapiens, UniProt P43405).
T1 construct: 2.5 nM SYK, 400 nM Biotin-Aha-Aha-KEDPDYEWPSAKK
As to the kind of experiment: SYK Flash Plate Assay (enzyme assay). The settings on record: Syk inhibition. It is filed as biochemical. An excerpt:
The following abbreviations refer respectively to the definitions below: • aq (aqueous), h (hour), g (gram), L (liter), mg (milligram), MHz (Megahertz), min. (minute), mm (millimeter), mmol (millimole), mM (millimolar), m.p. (melting point), eq (equivalent), mL (milliliter), L (microliter), ACN (acetonitrile), AcOH (acetic acid), CDCl3 (deuterated chloroform), CD3OD (deuterated methanol), CH3CN (acetonitrile), c-hex (cyclohexane), DCC (dicyclohexyl carbodiimide), DCM (dichloromethane), DIC (diisopropyl carbodiimide), DIEA (diisopropylethyl-amine), DMF (dimethylformamide), DMSO (dimethylsulfoxide), DMSO-d6 (deuterated dimethylsulfoxide), EDC (1-(3-dimethyl-amino-propyl)-3-ethylcarbodiimide), ESI (Electro-spray ionization), EtOAc (ethyl acetate), Et2O (diethyl ether), EtOH (ethanol), HATU (dimethylamino-([1,2,3]triazolo[4,5-b]pyridin-3-yloxy)-methylene]-dimethyl-ammonium hexafluorophosphate), HPLC (High Performance Liquid Chromatography), i-PrOH (2-propanol), K2CO3 (potassium carbonate), LC (Liquid Chromatography), MeOH (methanol), MgSO4 (magnesium sulfate), MS (mass spectrometry), MTBE (Methyl tert-butyl ether), NaHCO3 (sodium bicarbonate), NaBH4 (sodium borohydride), NMM (N-methyl morpholine), NMR (Nuclear Magnetic Resonance), PyBOP (benzotriazole-1-yl-oxy-tris-pyrrolidino-phosphonium hexafluorophosphate), RT (room temperature), Rt (retention time), SPE (solid phase extraction), TBTU (2-(1-H-benzotriazole-1-yl)-1,1,3,3-tetramethyluromium tetrafluoro borate), TEA (triethylamine), TFA (trifluoroacetic acid), THF (tetrahydrofuran), TLC (Thin Layer Chromatography), UV (Ultraviolet). Description of the In Vitro Assays SYK Flash Plate Assay
The kinase assay is performed either as 384-well Flashplate assay (for e.g. Topcount measurement) or as 384-well Image-Flashplate assay (for LEADseeker measurement).
2.5 nM SYK, 400 nM Biotin-Aha-Aha-KEDPDYEWPSAKK
and 10 μM ATP (spiked with 0.3 μCi 33P-ATP/well) are incubated in a total volume of 50 μl (60 mM Hepes, 10 mM MgCl2, 1.2 mM Dithiothreitol, 0.02% Brij35, 0.1% BSA, pH 7.5) with or without test compound for 1 hours at 30° C. The reaction is stopped with 25 μl 200 mM EDTA. After 30 Min at 30° C. the liquid is removed and each well washed thrice with 100 μl 0.9% sodium chloride solution. Non-specific reaction is determined in presence of 0.1 μM Staurosporine. Radioactivity is measured with Topcount (when using Flashplates) or with LEADseeker (when using Image-Flashplates) respectively. Results (e.g. IC50-values) are calculated with program tools provided by the IT-department (e.g. Symyx Assay Explorer, Genedata Screener). In Vivo Assays CIA

The text below walks through data of patent US9725462B2, “Pyridopyrimidine derivatives as protein kinase inhibitors” (Merck Patent GmbH, priority 2012, dated 2017).

The structures appear in SMILES notation.

Turning to `COc1cccc(C#Cc2cncc3cnc(N[C@H]4CCCC[C@H]4N)nc23)c1` (stereo in doubt) [Compound A35, (1S,2R)-N-[8-(3-Methoxy-phenylethynyl)-pyrido[4,3-d]pyrimidin-2-yl]-cyclohexane-1,2-diamine], the IC50 (as a rule, the concentration needed to halve the response being measured) was 100 to 1000 nM.

For `N#Cc1cnc(N)c2cnc(N[C@H]3CCCC[C@H]3N)nc12` (relative stereo) [Compound A9, 5-Amino-2-(cis2-amino-cyclohexylamino)-pyrido[4,3-d]pyrimidine-8-carbonitrile], the IC50 was in the range of 1000 to 50000 nM.

In turn, `Cc1ncc(-c2c[nH]c3cc(C(F)(F)F)ccc23)c2nc(N[C@H]3CCCC[C@H]3N)ncc12` (single isomer, unassigned) [Compound A89] had an IC50 of under 100 nM.

`Cc1cccc(-c2cnc(N)c3cnc(N[C@H]4CCCC[C@H]4N)nc23)c1` (single isomer, unassigned) [Compound A21, N2-((cis)-2-Amino-cyclohexyl)-8-m-tolyl-pyrido[4,3-d]pyrimidine-2,5-diamine] showed an IC50 of 1000 to 50000 nM.

As for `Nc1ncc(-c2c[nH]c3ccccc23)c2nc(N[C@H]3CCCC[C@H]3N)ncc12` (relative stereo) [Compound A24, N2-(cis-2-Amino-cyclohexyl)-8-(1H-indol-3-yl)-pyrido[4,3-d]pyrimidine-2,5-diamine], the concentration for half-maximal inhibition (IC50) was under 100 nM.

As for `N[C@H]1CCCC[C@H]1Nc1ncc2cncc(-c3ccc4[nH]cnc4c3)c2n1` [Compound A36], the 50% inhibitory concentration (IC50) is 1000 to 50000 nM.

The molecule `COc1cccc2cc(-c3cnc(N)c4cnc(N[C@@H]5CCCC[C@@H]5N)nc34)[nH]c12` (relative stereo) [Compound A18, N2-(cis-2-Amino-cyclohexyl)-8-(7-methoxy-1H-indol-2-yl)-pyrido[4,3-d]pyrimidine-2,5-diamine] registered an IC50 of under 100 nM.

As for `N[C@H]1CCCC[C@H]1Nc1ncc2c(C(F)F)ncc(-c3c[nH]c4cc(C(F)(F)F)ccc34)c2n1` [Compound A82], the IC50 is under 100 nM.

Consider `COC[C@H](N)CNc1ncc2cncc(-c3cccc(C)c3)c2n1` [Compound A30, (R)-3-Methoxy-N1-(8-m-tolyl-pyrido[4,3-d]pyrimidin-2-yl)-propane-1,2-diamine], for which the half-inhibitory concentration (IC50) fell in the range of 1000 to 50000 nM.

`COC[C@H](N)CNc1ncc2c(N)ncc(-c3cnn(C)c3)c2n1` [Compound A20, N2-((R)-2-Amino-3-methoxy-propyl)-8-(1-methyl-1H-pyrazol-4-yl)-pyrido[4,3-d]pyrimidine-2,5-diamine] registered an IC50 of 100 to 1000 nM.

Turning to `Cn1cc(-c2cnc(N)c3cnc(N[C@H]4CCCC[C@H]4N)nc23)cn1` (single isomer, unassigned) [Compound A4, N2-((cis)-2-Amino-cyclohexyl)-8-(1-methyl-1H-pyrazol-4-yl)-pyrido[4,3-d]pyrimidine-2,5-diamine], the IC50 is 1000 to 50000 nM.

In turn, `Cc1cccc(-c2cncc3cnc(N[C@H]4CCCC[C@H]4N)nc23)c1` (stereo in doubt) [Compound A31, (1S,2R)-N-(8-m-Tolyl-pyrido[4,3-d]pyrimidin-2-yl)-cyclohexane-1,2-diamine] gave an IC50 of 100 to 1000 nM.

In the case of `CC(C)(C)c1ccc(-c2cnc(N)c3cnc(N[C@H]4CCCC[C@H]4N)nc23)cc1` (relative stereo) [Compound A7, N2-(cis-2-Amino-cyclohexyl)-8-(4-tert-butyl-phenyl)-pyrido[4,3-d]pyrimidine-2,5-diamine], the IC50 is 1000 to 50000 nM.

For the molecule `Nc1ncc(-c2ccccc2)c2nc(N[C@@H]3CCCC[C@@H]3N)ncc12` [Compound A17, N2-((1R,2S)-2-Amino-cyclohexyl)-8-phenyl-pyrido[4,3-d]-pyrimidine-2,5-diamine], the IC50 lay within 100 to 1000 nM.

Take `CN1CN(c2ncc3c(N)ncc(-c4cnn(C)c4)c3n2)[C@@H]2CCCC[C@@H]21` (single isomer, unassigned) [Compound A11, 2-((cis)-3-Methyl-octahydro-benzoimidazol-1-yl)-8-(1-methyl-1H-pyrazol-4-yl)-pyrido[4,3-d]pyrimidin-5-ylamine]: the 50% inhibitory concentration (IC50) is 1000 to 50000 nM.

In the case of `N#Cc1ccc2c(-c3cncc4cnc(N[C@@H]5CCOC[C@@H]5N)nc34)c[nH]c2c1` [Compound A69, 3[2-((3R,4R)-3-Amino-tetrahydro-pyran-4-ylamino)-pyrido[4,3-d]pyrimidin-8-yl]-1H-indole-6-carbonitrile], the 50% inhibitory concentration (IC50) was in the range of 100 to 1000 nM.

With `N#Cc1ccc2c(-c3cncc4cnc(N[C@@H]5CCCC[C@@H]5N)nc34)c[nH]c2c1` [Compound A45, 3-[2-((1R,2S)-2-Amino-cyclohexylamino)-pyrido[4,3-d]pyrimidin-8-yl]-1H-indole-6-carbonitrile], the 50% inhibitory concentration (IC50) is under 100 nM.

The molecule `Cc1cccc(-c2cncc3cnc(N[C@H](CC(C)C)C(N)=O)nc23)c1` [Compound A32, (R)-4-Methyl-2-(8-m-tolyl-pyrido[4,3-d]pyrimidin-2-ylamino)-pentanoic acid amide] gave an IC50 of 1000 to 50000 nM.

Molecule `FC1(CNc2ncc3cncc(-c4c[nH]c5cc(C(F)(F)F)ccc45)c3n2)CCCNC1` (single isomer, unassigned) [Compound A79, (3-fluoro-piperidin-3-ylmethyl)-[8-(6-trifluoromethyl-1H-indol-3-yl)-pyrido[4,3-d]pyrimidin-2-yl]-amine] yielded an IC50 of 1000 to 50000 nM.

With `N[C@@H]1CCCC[C@@H]1Nc1ncc2cncc(-c3cc4n(n3)CCCC4)c2n1` (stereo in doubt) [Compound A33, (1S,2R)-N-[8-(4,5,6,7-Tetrahydro-pyrazolo[1,5-a]pyridin-2-yl)-pyrido[4,3-d]pyrimidin-2-yl]-cyclohexane-1,2-diamine], the IC50 is 1000 to 50000 nM.

As to `Cn1cc(-c2cnc(N)c3cnc(N4CCC(CO)CC4)nc23)cn1` [Compound A5, {1-[5-Amino-8-(1-methyl-1H-pyrazol-4-yl)-pyrido[4,3-d]pyrimidin-2-yl]-piperidin-4-yl}-methanol], the IC50 is 1000 to 50000 nM.

The molecule `Cc1ncc(-c2c[nH]c3cc(C#N)ccc23)c2nc(N[C@H]3CCCC[C@H]3N)ncc12` (relative stereo) [Compound A85, 3-[2-((cis)-2-amino-cyclohexylamino)-5-methyl-pyrido[4,3-d]pyrimidin-8-yl]-1H-indole-6-carbonitrile] returned a half-maximal inhibitory concentration (IC50) of 100 to 1000 nM.

`Cn1cc(-c2cnc(N)c3cnc(N[C@@H]4CCCC[C@@H]4N)nc23)cn1` (single isomer, unassigned) [Compound A1, N2-((cis)-2-Amino-cyclohexyl)-8-(1-methyl-1H-pyrazol-4-yl)-pyrido[4,3-d]-pyrimidine-2,5-diamine] returned a 50% inhibitory concentration (IC50) of under 100 nM.

The molecule `Cn1cc(-c2cnc(N)c3cnc(NCCN)nc23)cn1` [Compound A6, N2-(2-Amino-ethyl)-8-(1-methyl-1H-pyrazol-4-yl)-pyrido[4,3-d]-pyrimidine-2,5-diamine] returned an IC50 of 1000 to 50000 nM.

Regarding `N[C@H]1CCCC[C@H]1Nc1ncc2cncc(-c3c[nH]c4cnccc34)c2n1` [Compound A76], the IC50 was under 100 nM.

Molecule `N[C@H]1CCCC[C@H]1Nc1ncc2cncc(-c3ccc4[nH]c(=O)[nH]c4c3)c2n1` [Compound A37, 5-[2-((1R,2S)-2-Amino-cyclohexylamino)-pyrido[4,3-d]pyrimidin-8-yl]-1,3-dihydro-benzimidazol-2-one] displayed an IC50 of 1000 to 50000 nM.

As for `Cc1nn(C)cc1-c1cncc2cnc(N[C@@H]3CCCC[C@@H]3N)nc12` (relative stereo) [Compound A25, cis-N-[8-(1,3-Dimethyl-1H-pyrazol-4-yl)-pyrido[4,3-d]pyrimidin-2-yl]-cyclohexane-1,2-diamine], the 50% inhibitory concentration (IC50) lay within 1000 to 50000 nM.

Molecule `N#Cc1ccc2c(-c3cncc4cnc(NC5CCCCC5)nc34)c[nH]c2c1` [Compound A80, 3-(2-cyclohexylamino-pyrido[4,3-d]pyrimidin-8-yl)-1H-indole-6-carbonitrile] registered a 50% inhibitory concentration (IC50) of 1000 to 50000 nM.

The molecule `N#Cc1ccc2[nH]c(-c3cnc(N)c4cnc(N[C@@H]5CCCC[C@@H]5N)nc34)cc2c1` (relative stereo) [Compound A23, 2-[5-Amino-2-((cis)-2-amino-cyclohexylamino)-pyrido[4,3-d]-pyrimidin-8-yl]-1H-indole-5-carbonitrile] came in with an IC50 of 100 to 1000 nM.

For the molecule `CC(C)C[C@@H](Nc1ncc2cncc(-c3c[nH]c4cc(C(F)(F)F)ccc34)c2n1)C(N)=O` [Compound A62, (2R)-4-Methyl-2-[[8-[6-(trifluoromethyl)-1H-indol-3-yl]pyrido[4,3-d]-pyrimidin-2-yl]amino]pentanamide], the IC50 is under 100 nM.
